Laboratory results published in ChEMBL document CHEMBL6109102, “Conjugation with the XJB peptide enhanced neuroprotective effect of honokiol via SIRT3 modulation” (Eur J Med Chem, 2025).
The source made the active and inactive calls. The rule behind the calls is not given here.

Experiments:
SH-SY5Y = assay: Cytotoxicity against human SH-SY5Y cells assessed as inhibition of cell viability at 100 uM incubated for 24 hrs by MTT assay; assay type: functional, cell-based
PC-12 [1] = assay: Cytoprotective activity against H2O2-induced cell injury in rat PC12 cells assessed as cell viability at 10 uM incubated for 24 hrs by MTT assay; assay type: functional, cell-based
PC-12 [2] = assay: Cytoprotective activity against H2O2-induced cell injury in rat PC12 cells assessed as cell viability at 20 uM incubated for 24 hrs by MTT assay; assay type: functional, cell-based
[3] = Drug uptake in mitochondria of rat PC12 cells at 8 uM incubated for 8.5 hrs by HPLC analysis; assay type: ADME; conditions: pc12, 8.5 h
PC-12 [4] = assay: Inhibition of apoptosis in H2O2-induced rat PC12 cells assessed as viable cells at 1.25 uM incubated with compound for 24 hrs followed by H2O2 addition and measured after 24 hrs by Annexin V-FITC/PI staining based flow cytometry analysis (reference value: 91.4%); assay type: functional; conditions: read-out: Activity
PC-12 [5] = assay: Inhibition of apoptosis in H2O2-induced rat PC12 cells assessed as early apoptotic cells at 1.25 uM incubated with compound for 24 hrs followed by H2O2 addition and measured after 24 hrs by Annexin V-FITC/PI staining based flow cytometry analysis (reference value: 1.09%); assay type: functional; parameters: scale not given: the % may be the effect or the level left
PC-12 [6] = assay: Inhibition of apoptosis in H2O2-induced rat PC12 cells assessed as late apoptotic cells at 1.25 uM incubated with compound for 24 hrs followed by H2O2 addition and measured after 24 hrs by Annexin V-FITC/PI staining based flow cytometry analysis (reference value: 2.64%); assay type: functional; parameters: scale not given: the % may be the effect or the level left
PC-12 [7] = assay: Inhibition of apoptosis in H2O2-induced rat PC12 cells assessed as necrotic cells at 1.25 uM incubated with compound for 24 hrs followed by H2O2 addition and measured after 24 hrs by Annexin V-FITC/PI staining based flow cytometry analysis (reference value: 4.05%); assay type: functional; parameters: scale not given: the % may be the effect or the level left
PC-12 [8] = assay: Inhibition of apoptosis in H2O2-induced rat PC12 cells assessed as viable cells at 2.5 uM incubated with compound for 24 hrs followed by H2O2 addition and measured after 24 hrs by Annexin V-FITC/PI staining based flow cytometry analysis (reference value: 91.4%); assay type: functional; conditions: read-out: Activity
PC-12 [9] = assay: Inhibition of apoptosis in H2O2-induced rat PC12 cells assessed as early apoptotic cells at 2.5 uM incubated with compound for 24 hrs followed by H2O2 addition and measured after 24 hrs by Annexin V-FITC/PI staining based flow cytometry analysis (reference value: 1.09%); assay type: functional; parameters: scale not given: the % may be the effect or the level left
PC-12 [10] = assay: Inhibition of apoptosis in H2O2-induced rat PC12 cells assessed as late apoptotic cells at 2.5 uM incubated with compound for 24 hrs followed by H2O2 addition and measured after 24 hrs by Annexin V-FITC/PI staining based flow cytometry analysis (reference value: 2.64%); assay type: functional; parameters: scale not given: the % may be the effect or the level left
PC-12 [11] = assay: Inhibition of apoptosis in H2O2-induced rat PC12 cells assessed as necrotic cells at 2.5 uM incubated with compound for 24 hrs followed by H2O2 addition and measured after 24 hrs by Annexin V-FITC/PI staining based flow cytometry analysis (reference value: 4.05%); assay type: functional; parameters: scale not given: the % may be the effect or the level left
PC-12 [12] = assay: Inhibition of apoptosis in H2O2-induced rat PC12 cells assessed as viable cells at 5 uM incubated with compound for 24 hrs followed by H2O2 addition and measured after 24 hrs by Annexin V-FITC/PI staining based flow cytometry analysis (reference value: 91.4%); assay type: functional; conditions: read-out: Activity
PC-12 [13] = assay: Inhibition of apoptosis in H2O2-induced rat PC12 cells assessed as early apoptotic cells at 5 uM incubated with compound for 24 hrs followed by H2O2 addition and measured after 24 hrs by Annexin V-FITC/PI staining based flow cytometry analysis (reference value: 1.09%); assay type: functional; parameters: scale not given: the % may be the effect or the level left
PC-12 [14] = assay: Inhibition of apoptosis in H2O2-induced rat PC12 cells assessed as late apoptotic cells at 5 uM incubated with compound for 24 hrs followed by H2O2 addition and measured after 24 hrs by Annexin V-FITC/PI staining based flow cytometry analysis (reference value: 2.64%); assay type: functional; parameters: scale not given: the % may be the effect or the level left
PC-12 [15] = assay: Inhibition of apoptosis in H2O2-induced rat PC12 cells assessed as necrotic cells at 5 uM incubated with compound for 24 hrs followed by H2O2 addition and measured after 24 hrs by Annexin V-FITC/PI staining based flow cytometry analysis (reference value: 4.05%); assay type: functional; parameters: scale not given: the % may be the effect or the level left
PC-12 [16] = assay: Anti-apoptotic activity in H2O2-induced rat PC12 cells assessed as increase in PARP protein expression at 1.25 to 5 uM by Western blot analysis; assay type: functional, cell-based; conditions: dose 1.25-5 µM
PC-12 [17] = assay: (§1) Neuroprotective activity in H2O2-induced rat PC12 cells assessed as reversal of mitochondrial membrane potential reduction by measuring red fluorescence at 1.25 uM incubated with compound for 24 hrs followed by H2O2 addition and measured after 24 hrs by JC-1 based fluorescence microscopic analysis (reference value: 21.62 a.u.); assay type: functional
PC-12 [18] = assay: as §1, with “2.5” for “1.25”; assay type: functional
PC-12 [19] = assay: as §1, with “5” for “1.25”; assay type: functional
PC-12 [20] = assay: as §1, with “measuring green” for “measuring red”, “at 1.5” for “at 1.25”, “value: 4.90” for “value: 21.62”; assay type: functional
PC-12 [21] = assay: as §1, with “measuring green” for “measuring red”, “at 2.5” for “at 1.25”, “value: 4.90” for “value: 21.62”; assay type: functional
PC-12 [22] = assay: as §1, with “measuring green” for “measuring red”, “at 5” for “at 1.25”, “value: 4.90” for “value: 21.62”; assay type: functional
PC-12 [23] = assay: (§2) Neuroprotective activity in H2O2-induced rat PC12 cells assessed as reversal of mitochondrial membrane potential reduction by measuring red fluorescence fold change at 1.5 uM incubated with compound for 24 hrs followed by H2O2 addition and measured after 24 hrs by JC-1 based fluorescence microscopic analysis (reference value: 1.00); assay type: functional
PC-12 [24] = assay: as §2, with “2.5” for “1.5”; assay type: functional
PC-12 [25] = assay: as §2, with “5” for “1.5”; assay type: functional
PC-12 [26] = assay: as §2, with “measuring green” for “measuring red”; assay type: functional
PC-12 [27] = assay: as §2, with “measuring green” for “measuring red”, “at 2.5” for “at 1.5”; assay type: functional
PC-12 [28] = assay: as §2, with “measuring green” for “measuring red”, “at 5” for “at 1.5”; assay type: functional
PC-12 [29] = assay: Induction of autophagy in H2O2-induced rat PC12 cells assessed as downregulation of P62 expression by Western blot analysis; assay type: functional, cell-based; conditions: dose 1.25-5 µM
PC-12 [30] = assay: Induction of autophagy in H2O2-induced rat PC12 cells assessed as upregulation of LC3-II/I ratio by Western blot analysis; assay type: functional, cell-based; conditions: dose 1.25-5 µM
Danio rerio = assay: Anti-alzheimer activity in scopolamine induced zebrafish alzheimer disease model assessed as increase in total swimming distance at 1.25 to 5 uM administered for 6 days post fertilization; assay type: functional, organism-based; conditions: dose 1.25-5 µM, time 6.0 day
[31] = Drug uptake in cytoplasm of rat PC12 cells at 8 uM incubated for 8.5 hrs by HPLC analysis; assay type: ADME, subcellular; conditions: pc12, 8.5 h
[32] = Drug uptake in rat PC12 cells at 8 uM incubated for 8.5 hrs by HPLC analysis; assay type: ADME, cell-based; conditions: pc-12, 8.5 h
PC-12 [33] = assay: Neuroprotective activity against H2O2-induced cell injury in rat PC12 cells assessed as cell viability at 2 uM incubated for 24 hrs by MTT assay; assay type: functional, cell-based
PC-12 [34] = assay: Induction of autophagy in rat PC12 cells assessed as reduction of LC3-II/I ratio in presence of 3-TYP by Western blot analysis; assay type: functional, cell-based
PC-12 [35] = assay: Neuroprotective activity in H2O2-induced rat PC12 cells assessed as reduction in cell viability in presence of 3-TYP at 10 uM; assay type: functional, cell-based
PC-12 [36] = assay: Neuroprotective activity in H2O2-induced rat PC12 cells assessed as upregulation of SIRT-3 level at 1.25 to 5 uM by Western blot analysis; assay type: functional, cell-based; conditions: dose 1.25-5 µM
PC-12 [37] = assay: Neuroprotective activity in H2O2-induced rat PC12 cells assessed as upregulation of Mfn-1 expression at 1.25 to 5 uM by Western blot analysis; assay type: functional, cell-based; conditions: dose 1.25-5 µM
PC-12 [38] = assay: Neuroprotective activity in H2O2-induced rat PC12 cells assessed as upregulation of p-AMPK/AMPK ratio at 1.25 to 5 uM by Western blot analysis; assay type: functional, cell-based; conditions: dose 1.25-5 µM
PC-12 [39] = assay: Neuroprotective activity in H2O2-induced rat PC12 cells assessed as suppression of Mfn-1 expression in presence of 3-TYP by Western blot analysis; assay type: functional, cell-based
PC-12 [40] = assay: Neuroprotective activity against H2O2-induced cell injury in rat PC12 cells assessed as cell viability incubated for 24 hrs by MTT assay; assay type: functional, cell-based; conditions: dose 0.37-30 µM
PC-12 [41] = assay: Cytotoxicity against rat PC12 cells assessed as inhibition of cell viability at 30 uM incubated for 24 hrs by MTT assay; assay type: functional, cell-based

Row | Drug uptake [3] | Drug uptake [31] | Drug uptake [32] | Compound | Activity (SH-SY5Y) | Activity (PC-12 [17]) [a.u.] | Activity (PC-12 [18]) [a.u.] | Activity (PC-12 [19]) [a.u.] | Activity (PC-12 [20]) [a.u.] | Activity (PC-12 [21]) [a.u.] | Activity (PC-12 [22]) [a.u.] | fold change (FC) (PC-12 [23]) | fold change (FC) (PC-12 [24]) | fold change (FC) (PC-12 [25]) | fold change (FC) (PC-12 [26]) | fold change (FC) (PC-12 [27]) | fold change (FC) (PC-12 [28]) | Activity (PC-12 [29]) | Activity (PC-12 [30]) | also measured
1 | Active | Active | Active | C=CCc1ccc(O)c(-c2ccc(O)c(CC=C)c2)c1 [HONOKIOL] | Active | 2.16 | 6.59 | 13.31 | 6.32 | 4.08 | 3.97 | 0.09 | 0.32 | 0.63 | 2.55 | 1.02 | 1.26 | inactive | inactive | Activity (PC-12 [1]): Active; Activity (PC-12 [2]): inactive; viability at 1.25 µM (PC-12 [4]): 76.9%; Activity (PC-12 [5]): 16.6%; Activity (PC-12 [6]): 4.95%; Activity (PC-12 [7]): 1.57%; viability at 2.5 µM (PC-12 [8]): 79.6%; Activity (PC-12 [9]): 15.6%; Activity (PC-12 [10]): 3.27%; Activity (PC-12 [11]): 1.43%; viability at 5 µM (PC-12 [12]): 77.1%; Activity (PC-12 [13]): 16.5%; Activity (PC-12 [14]): 4.84%; Activity (PC-12 [15]): 1.52%; Activity (PC-12 [16]): Active; Activity (Danio rerio): Active
2 | Active | Active | Active | C=CCc1ccc(O)c(-c2ccc(OCCCNC(=O)[C@H](CCCNC(=O)OCc3ccccc3)NC(=O)[C@@H](NC(=O)[C@@H]3CCCN3C(=O)[C@@H](Cc3ccccc3)NC(=O)[C@H](CC(C)C)NC(=O)OC(C)(C)C)C(C)C)c(CC=C)c2)c1 | inactive | 3.18 | 11.01 | 15.68 | 3.7 | 7.17 | 4.76 | 0.14 | 0.52 | 0.74 | 1.4 | 2.91 | 1.44 | Dose-dependent-effect | Dose-dependent-effect | Activity (PC-12 [33]): Active; Activity (PC-12 [34]): Active; Activity (PC-12 [35]): Active; Activity (PC-12 [36]): Active; Activity (PC-12 [37]): Active; Activity (PC-12 [38]): Active; Activity (PC-12 [39]): Active; Activity (PC-12 [40]): Dose-dependent-effect
3 |  |  |  | C=CCc1ccc(OCCCNC(=O)[C@H](CCCNC(=O)OCc2ccccc2)NC(=O)[C@@H](NC(=O)[C@@H]2CCCN2C(=O)[C@@H](Cc2ccccc2)NC(=O)[C@H](CC(C)C)NC(=O)OC(C)(C)C)C(C)C)c(-c2ccc(OC)c(CC=C)c2)c1 |  |  |  |  |  |  |  |  |  |  |  |  |  |  |  | Activity (PC-12 [41]): inactive
